Our source for the TGI values is PubChem BioAssay (NCI).

Common to all, as to assay: NCI anticancer screen, dose series, 48 h
Experiment [1] deals with NCI-H226 lung.
The subject of experiment [2] is HT29 colon.
Experiment [3] has as its system SN12C renal.
For experiment [4], the system named is IGROV1 ovarian.
Experiment [5] has as its system K-562 leukemia.
The subject of experiment [6] is HCT-15 colon.
Experiment [7] concerns HL-60(TB) leukemia.
Experiment [8] concerns MOLT-4 leukemia.
For experiment [9], the system named is COLO 205 colon.
For experiment [10], the system named is UO-31 renal.
In experiment [11] the test system is NCI-H460 lung.
For experiment [12], the system named is UACC-257 melanoma.
Experiment [13] deals with A549 NSCLC.
Experiment [14] has as its system HOP-62 NSCLC.
The subject of experiment [15] is HOP-92 NSCLC.
Experiment [16] has as its system SNB-19 CNS.
The test system of experiment [17] is SW-620 colon.

Molecules are shown by their SMILES.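 Following 48 hours of exposure in 96-well plates, responses at five concentrations were used to interpolate endpoints linearly. TGI marks complete inhibition of growth.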

`CCCN(CCC)c1c([N+](=O)[O-])cc(C(=O)N(CCO)CCO)cc1[N+](=O)[O-]`: the TGI in experiment [1], in experiment [2], in experiment [3], in experiment [4], in experiment [5] and in experiment [6] was > 100 µM each time. Moreover, the TGI in experiment [7], in [8], in experiment [9], in experiment [10], in experiment [11] and in [12] was > 100 µM each time. For the same compound, in [13], the TGI is > 100 µM.
For `CCOC(=O)C1([Se]c2ccccc2)CCCC1=O` (centres undefined), the TGI in experiment [1] is 74.8 µM; in experiment [2], > 100 µM; in experiment [14], > 100 µM; in experiment [15], 54.5 µM; in [3], 30.5 µM; in experiment [4], 78.4 µM. Besides, the TGI in [5] was > 100 µM; in [16], > 100 µM; in experiment [6], 25.9 µM; in [7], 23.5 µM; in experiment [8] it was 57.1 µM; in experiment [9], 30.8 µM. The TGI was 51.6 µM in experiment [10], > 100 µM in [11], > 100 µM in [12] and > 100 µM in experiment [13].
Regarding `O=C1C2C3C=C4c5ccccc5N(c5ccccc5)C4(C2C(=O)N1c1ccc(Br)cc1)[C@H]1C(=O)N(c2ccc(Br)cc2)C(=O)[C@@H]31` (some centres undefined), the TGI in experiment [17], in [1], in [2], in experiment [14], in experiment [15] and in [3] was > 100 µM throughout. In addition, the TGI in experiment [4], in [5], in experiment [16], in experiment [6], in experiment [7] and in [8] was > 100 µM throughout. Moreover, the TGI in [9], in experiment [10], in [11], in [12] and in [13] was > 100 µM in each case.
In the case of `CC1C2=C(CCCC2=O)N(c2ccc(Cl)cc2)C2=C1C(=O)CCC2`, the TGI in experiment [17], in [1], in experiment [2], in experiment [15], in [3] and in experiment [4] was > 100 µM each time. The TGI in experiment [5], in [16], in experiment [6], in [7], in experiment [8] and in experiment [10] was > 100 µM throughout. Besides, the TGI in [11] and in [13] was > 100 µM in each case.
On to `COc1ccc2[nH]c3c(C)cc([N+](=O)[O-])c(C)c3c2c1`, for which the TGI in experiment [17] is > 100 µM; in [1] it was > 100 µM; in experiment [2], 83.8 µM; in [15] it was 80.6 µM; in experiment [3] it was > 100 µM; in experiment [4] it was > 100 µM. The TGI was 44.3 µM in [5]; > 100 µM in experiment [16]; > 100 µM in experiment [6]; 50.4 µM in experiment [7]; > 100 µM in [8]; > 100 µM in experiment [9]. The TGI in [10] is 71 µM; in experiment [11], 39.7 µM; in experiment [12], > 100 µM; in experiment [13] it was 75.3 µM.
As to `OC12c3ccccc3C3CCC4(OCCO4)C3C1c1ccccc12` (centres undefined), the TGI in experiment [17], in experiment [1], in experiment [2], in experiment [14], in experiment [3] and in experiment [4] was > 100 µM each time. Also, the TGI in experiment [5], in experiment [16], in experiment [6], in experiment [7], in [8] and in experiment [9] was > 100 µM throughout. The TGI in [10], in experiment [11], in experiment [12] and in experiment [13] was > 100 µM each time.
On to `C#CC1(O)CCC2[C@@H]3CCc4cc(Oc5nc(F)nc(-c6c7ccccc7cn6C)n5)ccc4C3CC[C@@]21C` (some centres undefined), for which the TGI in [17], in experiment [1], in experiment [2], in experiment [14], in experiment [15] and in experiment [3] was > 100 µM in each case. For the same compound, the TGI in experiment [5], in [16], in [6], in [7], in experiment [8] and in experiment [9] was > 100 µM in each case. For the same compound, the TGI in experiment [10], in experiment [11], in experiment [12] and in experiment [13] was > 100 µM throughout.
On to `O=c1[nH]c(=O)n(C2CC(O)C(CO)O2)cc1C#Cc1ccc(F)cc1` (centres undefined), for which the TGI in experiment [17], in [1], in experiment [2], in experiment [14], in [3] and in [4] was > 100 µM each time. The TGI in [5], in experiment [16], in experiment [6], in experiment [8], in experiment [9] and in experiment [10] was > 100 µM in each case. Also, the TGI in experiment [11], in experiment [12] and in experiment [13] was > 100 µM each time.
Regarding `CCOC(=O)/C(=C/c1ccc(N(CCC#N)CCC#N)cc1C)NC(=O)/C=C/c1ccccc1`, the TGI in [17], in experiment [1], in experiment [2], in [14], in experiment [3] and in [4] was > 100 µM in each case. Besides, the TGI in experiment [5], in experiment [16], in experiment [6], in experiment [7], in experiment [8] and in experiment [9] was > 100 µM each time. Besides, the TGI in experiment [10], in [11], in experiment [12] and in [13] was > 100 µM each time.
